From US20110269811A1, “INHIBITORS OF SEMICARBAZIDE-SENSITIVE AMINE OXIDASE (SSAO) AND VAP-1 MEDIATED ADHESION USEFUL FOR TREATMENT AND PREVENTION OF DISEASES” (priority 2006, published 2011)

Columns and labels:
M2 (h) = target: T1, M2 (h) (Homo sapiens, UniProt P08172); assay: Receptor binding screen, [^3H]AF-DX 384; conditions: 10 uM Concentration of Compound I-1-Z; read-out: Mean Value, percent inhibition of control specific binding: M2 (h)
T1 construct: expressed in transfected cells; host or cells: CHO cells
T1 sequence (P08172 whole entry): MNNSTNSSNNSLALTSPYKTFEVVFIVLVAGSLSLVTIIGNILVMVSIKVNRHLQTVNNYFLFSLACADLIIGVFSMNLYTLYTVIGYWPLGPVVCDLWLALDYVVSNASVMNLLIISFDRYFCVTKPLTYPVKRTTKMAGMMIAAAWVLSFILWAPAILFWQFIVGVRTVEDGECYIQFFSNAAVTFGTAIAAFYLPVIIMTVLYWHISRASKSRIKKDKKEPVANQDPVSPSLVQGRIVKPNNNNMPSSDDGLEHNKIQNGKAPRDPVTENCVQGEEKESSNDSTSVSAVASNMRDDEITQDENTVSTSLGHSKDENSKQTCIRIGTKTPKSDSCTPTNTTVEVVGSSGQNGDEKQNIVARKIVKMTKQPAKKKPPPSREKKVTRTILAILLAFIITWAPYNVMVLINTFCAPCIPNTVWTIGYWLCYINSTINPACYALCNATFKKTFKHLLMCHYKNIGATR

DA transporter (h) = target: T2, DA transporter (h) (Homo sapiens, UniProt Q01959); assay: Receptor binding screen, [^3H]BTCP; conditions: 10 uM Concentration of Compound I-1-Z; read-out: Mean Value, percent inhibition of control specific binding: DA transporter (h)
T2 construct: expressed in transfected cells; host or cells: CHO cells
T2 sequence (Q01959 whole entry): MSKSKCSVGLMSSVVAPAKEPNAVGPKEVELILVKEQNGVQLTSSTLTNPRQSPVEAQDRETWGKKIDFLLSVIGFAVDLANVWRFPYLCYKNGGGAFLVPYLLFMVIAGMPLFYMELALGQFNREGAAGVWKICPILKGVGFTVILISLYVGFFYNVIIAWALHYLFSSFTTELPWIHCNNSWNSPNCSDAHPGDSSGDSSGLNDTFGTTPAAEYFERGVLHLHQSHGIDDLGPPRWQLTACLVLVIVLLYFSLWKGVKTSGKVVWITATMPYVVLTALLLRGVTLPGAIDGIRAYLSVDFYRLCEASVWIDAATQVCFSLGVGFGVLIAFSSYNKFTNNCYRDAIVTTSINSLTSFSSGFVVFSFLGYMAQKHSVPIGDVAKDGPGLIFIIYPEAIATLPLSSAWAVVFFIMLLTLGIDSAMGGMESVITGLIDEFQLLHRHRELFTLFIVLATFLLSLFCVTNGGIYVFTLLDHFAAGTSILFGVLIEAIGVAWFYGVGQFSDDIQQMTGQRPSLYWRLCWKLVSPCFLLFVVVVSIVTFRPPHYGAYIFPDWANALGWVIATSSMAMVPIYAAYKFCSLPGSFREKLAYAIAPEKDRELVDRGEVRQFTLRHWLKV

ORL1 (h) (NOP) = target: T3, ORL1 (h) (NOP) (Homo sapiens, UniProt P41146); assay: Receptor binding screen, [^3H]nociceptin; conditions: 10 uM Concentration of Compound I-1-Z; read-out: Mean Value, percent inhibition of control specific binding: ORL1 (h) (NOP)
T3 construct: expressed in transfected cells; host or cells: HEK-293 cells
T3 sequence (P41146 whole entry): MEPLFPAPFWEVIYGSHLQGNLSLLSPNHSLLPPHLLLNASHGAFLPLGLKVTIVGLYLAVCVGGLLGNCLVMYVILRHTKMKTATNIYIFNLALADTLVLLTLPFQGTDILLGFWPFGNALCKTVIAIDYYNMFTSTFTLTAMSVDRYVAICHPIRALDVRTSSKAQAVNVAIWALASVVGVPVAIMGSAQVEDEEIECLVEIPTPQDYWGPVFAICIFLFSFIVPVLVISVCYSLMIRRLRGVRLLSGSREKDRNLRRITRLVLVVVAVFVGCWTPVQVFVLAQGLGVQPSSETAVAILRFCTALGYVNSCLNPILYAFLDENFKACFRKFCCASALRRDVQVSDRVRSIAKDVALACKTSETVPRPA
Protocol: (§1) For Table 4 below, the specific ligand binding to the receptors is defined as the difference between the total binding and the nonspecific binding determined in the presence of an excess of unlabelled ligand. The results are expressed as a percent inhibition of control specific binding obtained in the presence of Compound I-1-Z. The IC50 values (concentration causing a half-maximal inhibition of control specific binding) and Hill coefficients (nH) were determined by non-linear regression analysis of the competition curves using Hill equation curve fitting. The inhibition constants (Ki) were calculated from the Cheng Prusoff equation (Ki=IC50/(1+(L/KD)), where L=concentration of radioligand in the assay, and KD=affinity of the radioligand for the receptor). In each experiment, the respective reference compound was tested concurrently with Compound I-1-Z in order to assess the assay suitability.

Cl^− channel = assay: Receptor binding screen, [^35S]TBPS; parameters: species or system rat; conditions: 10 uM Concentration of Compound I-1-Z
D3 (h) = target: T4, D3 (h) (Homo sapiens, UniProt P35462); assay: Receptor binding screen, [^3H]spiperone; conditions: 10 uM Concentration of Compound I-1-Z; read-out: Mean Value, percent inhibition of control specific binding: D3 (h)
T4 construct: expressed in transfected cells; host or cells: CHO cells
T4 sequence (P35462 whole entry): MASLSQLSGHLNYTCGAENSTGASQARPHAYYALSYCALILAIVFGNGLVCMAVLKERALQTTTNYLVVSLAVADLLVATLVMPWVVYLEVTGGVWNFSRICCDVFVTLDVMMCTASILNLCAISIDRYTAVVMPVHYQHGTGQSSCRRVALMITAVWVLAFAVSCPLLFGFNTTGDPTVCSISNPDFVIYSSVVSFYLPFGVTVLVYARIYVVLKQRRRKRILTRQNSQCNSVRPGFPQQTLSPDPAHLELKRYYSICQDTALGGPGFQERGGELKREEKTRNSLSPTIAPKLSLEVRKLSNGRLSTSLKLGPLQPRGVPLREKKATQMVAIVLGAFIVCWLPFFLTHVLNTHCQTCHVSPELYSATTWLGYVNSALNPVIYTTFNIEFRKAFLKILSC

GAL2 (h) = target: T5, GAL2 (h) (Homo sapiens, UniProt O43603); assay: Receptor binding screen, [^125I]galanin; conditions: 10 uM Concentration of Compound I-1-Z; read-out: Mean Value, percent inhibition of control specific binding: GAL2 (h)
T5 construct: expressed in transfected cells; host or cells: CHO cells
T5 sequence (O43603 whole entry): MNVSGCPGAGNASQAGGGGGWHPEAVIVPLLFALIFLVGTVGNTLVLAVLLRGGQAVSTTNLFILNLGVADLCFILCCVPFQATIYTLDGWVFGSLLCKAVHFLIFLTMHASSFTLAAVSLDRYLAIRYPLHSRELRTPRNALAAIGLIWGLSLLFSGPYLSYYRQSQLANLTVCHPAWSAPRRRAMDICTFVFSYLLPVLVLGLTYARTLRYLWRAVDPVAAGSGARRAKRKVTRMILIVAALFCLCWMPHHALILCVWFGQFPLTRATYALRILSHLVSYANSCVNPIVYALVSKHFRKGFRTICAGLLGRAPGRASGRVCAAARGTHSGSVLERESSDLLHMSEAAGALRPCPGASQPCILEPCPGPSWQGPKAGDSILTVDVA

5-HT2C (h) = target: T6, 5-HT2C (h) (Homo sapiens, UniProt P28335); assay: Receptor binding screen, [^3H]mesulergine; conditions: 10 uM Concentration of Compound I-1-Z; read-out: Mean Value, percent inhibition of control specific binding: 5-HT2C (h)
T6 construct: expressed in transfected cells; host or cells: CHO cells
T6 sequence (P28335 33-458): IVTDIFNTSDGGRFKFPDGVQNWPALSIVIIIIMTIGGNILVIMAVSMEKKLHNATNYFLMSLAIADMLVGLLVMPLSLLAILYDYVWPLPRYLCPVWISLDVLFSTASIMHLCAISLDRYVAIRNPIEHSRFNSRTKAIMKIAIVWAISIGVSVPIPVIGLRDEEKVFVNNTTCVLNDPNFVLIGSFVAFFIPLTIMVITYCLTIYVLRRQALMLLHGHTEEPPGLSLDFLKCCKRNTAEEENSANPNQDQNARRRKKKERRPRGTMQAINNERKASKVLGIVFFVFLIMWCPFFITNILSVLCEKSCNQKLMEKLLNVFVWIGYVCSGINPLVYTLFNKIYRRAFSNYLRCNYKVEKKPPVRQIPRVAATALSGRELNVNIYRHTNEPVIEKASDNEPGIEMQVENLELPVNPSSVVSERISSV

BZD (central) = assay: Receptor binding screen, [^3H]flunitrazepam; parameters: species or system rat; conditions: 10 uM Concentration of Compound I-1-Z
5-HT1A (h) = target: T7, 5-HT1A (h) (Homo sapiens, UniProt P08908); assay: Receptor binding screen, [^3H]8-OH-DPAT; conditions: 10 uM Concentration of Compound I-1-Z; read-out: Mean Value, percent inhibition of control specific binding: 5-HT1A (h)
T7 construct: expressed in transfected cells; host or cells: HEK-293 cells

5-HT2A (h) = target: T8, 5-HT2A (h) (Homo sapiens, UniProt P28223); assay: Receptor binding screen, [^3H]ketanserin; conditions: 10 uM Concentration of Compound I-1-Z; read-out: Mean Value, percent inhibition of control specific binding: 5-HT2A (h)
T8 construct: expressed in transfected cells; host or cells: HEK-293 cells
T8 sequence (P28223 whole entry): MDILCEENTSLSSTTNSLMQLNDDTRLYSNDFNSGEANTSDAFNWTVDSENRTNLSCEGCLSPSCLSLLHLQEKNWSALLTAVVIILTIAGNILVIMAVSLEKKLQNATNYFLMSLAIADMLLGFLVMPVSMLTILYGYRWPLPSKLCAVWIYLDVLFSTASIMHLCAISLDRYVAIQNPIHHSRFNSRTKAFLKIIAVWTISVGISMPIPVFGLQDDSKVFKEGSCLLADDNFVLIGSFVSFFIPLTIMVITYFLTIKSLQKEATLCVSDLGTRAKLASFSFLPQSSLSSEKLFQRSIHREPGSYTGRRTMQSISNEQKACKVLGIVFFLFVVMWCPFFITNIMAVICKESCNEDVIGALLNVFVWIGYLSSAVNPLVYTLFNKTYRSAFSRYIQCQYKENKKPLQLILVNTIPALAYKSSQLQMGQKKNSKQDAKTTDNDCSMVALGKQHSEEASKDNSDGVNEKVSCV

MC4 (h) = target: T9, MC4 (h) (Homo sapiens, UniProt P32245); assay: Receptor binding screen, [^125I]NDP-α-MSH; conditions: 10 uM Concentration of Compound I-1-Z; read-out: Mean Value, percent inhibition of control specific binding: MC4 (h)
T9 construct: expressed in transfected cells; host or cells: CHO cells

AT2 (h) = target: T10, AT2 (h) (Homo sapiens, UniProt P50052); assay: Receptor binding screen, [^125I]CGP 42112A; conditions: 10 uM Concentration of Compound I-1-Z; read-out: Mean Value, percent inhibition of control specific binding: AT2 (h)
T10 construct: expressed in transfected cells; host or cells: Hela cells
T10 sequence (P50052 whole entry): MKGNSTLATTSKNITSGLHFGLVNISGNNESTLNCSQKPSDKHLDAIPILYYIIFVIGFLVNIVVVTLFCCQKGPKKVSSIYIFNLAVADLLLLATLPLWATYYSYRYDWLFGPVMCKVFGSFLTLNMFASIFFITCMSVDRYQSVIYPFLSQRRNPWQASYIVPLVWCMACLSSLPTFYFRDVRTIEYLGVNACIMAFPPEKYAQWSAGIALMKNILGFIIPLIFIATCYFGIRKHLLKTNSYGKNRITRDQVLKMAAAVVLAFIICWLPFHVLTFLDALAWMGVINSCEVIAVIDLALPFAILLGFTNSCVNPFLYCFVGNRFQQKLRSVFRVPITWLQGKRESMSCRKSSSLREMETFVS

[1] = system: LPS-induced lung inflammation; assay: LPS-induced pulmonary inflammation in rats; assay type: in vivo, Sprague Dawley rats; conditions: FIG. 14
Protocol: LPS-induced pulmonary inflammation in rats is a widely used model of airway inflammation ([…] et al. (2002) J. Pharmacol. Exp. Ther. 302:127). For the experiment described here, groups of Sprague-Dawley female rats (180-200 g) were orally dosed with either a compound of the invention (1 or 10 mg/kg), or with vehicle 1 h before the LPS challenge. Animals were placed in a plexiglass chamber and LPS at 100 μg/ml was nebulized for ten minutes. The nebulizer was turned off for ten minutes, then the chamber was evacuated for a further ten minutes. The animals remained in the chamber throughout this 30 minute cycle. Animals were then returned to their cages for the remainder of the experiment. Four hours after exposure to LPS animals were sacrificed and lungs excised. Lungs were washed with three cycles of 3 ml RPMI 1640 medium and the lavage fluid combined. Cells were pelleted by centrifugation and washed in the same medium. Total cell counts were performed using a hemacytometer. Differential cell counts were conducted on Cytospin-prepared slides stained with Diff-Quick stain. Standard morphological criteria were used to define mononuclear and neutrophilic cells. Using the above protocol, an experiment to assess the effects of compound I-1-Z was carried out. Groups of four female Sprague Dawley rats were orally administered PBS, compound I-1-Z at the indicated doses, or dexamethasone at 3 mg/kg. […]

NE transporter (h) = target: T11, NE transporter (h) (Homo sapiens, UniProt P23975); assay: Receptor binding screen, [^3H]nisoxetine; conditions: 10 uM Concentration of Compound I-1-Z; read-out: Mean Value, percent inhibition of control specific binding: NE transporter (h)
T11 construct: expressed in transfected cells; host or cells: CHO cells
T11 sequence (P23975 whole entry): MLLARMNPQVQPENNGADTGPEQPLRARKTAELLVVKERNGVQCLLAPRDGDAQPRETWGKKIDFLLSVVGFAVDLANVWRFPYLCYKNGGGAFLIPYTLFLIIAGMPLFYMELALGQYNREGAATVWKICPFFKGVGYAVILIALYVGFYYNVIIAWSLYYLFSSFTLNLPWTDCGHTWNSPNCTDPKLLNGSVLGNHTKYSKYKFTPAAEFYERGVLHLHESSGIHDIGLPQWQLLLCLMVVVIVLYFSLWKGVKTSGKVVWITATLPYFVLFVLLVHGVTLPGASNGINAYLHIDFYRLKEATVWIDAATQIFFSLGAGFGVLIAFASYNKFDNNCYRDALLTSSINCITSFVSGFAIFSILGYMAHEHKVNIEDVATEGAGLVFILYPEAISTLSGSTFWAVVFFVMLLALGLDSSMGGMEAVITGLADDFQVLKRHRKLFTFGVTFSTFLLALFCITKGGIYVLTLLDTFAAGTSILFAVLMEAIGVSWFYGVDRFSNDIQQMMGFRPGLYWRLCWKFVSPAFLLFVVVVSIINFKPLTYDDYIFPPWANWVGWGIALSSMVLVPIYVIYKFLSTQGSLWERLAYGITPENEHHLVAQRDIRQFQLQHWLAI

PACAP (PAC1) (h) = target: T12, PACAP (PAC1) (h) (Homo sapiens, UniProt P41586); assay: Receptor binding screen, [^125I]PACAP1-27; conditions: 10 uM Concentration of Compound I-1-Z; read-out: Mean Value, percent inhibition of control specific binding: PACAP (PAC1) (h)
T12 construct: expressed in transfected cells; host or cells: CHO cells
T12 sequence (P41586 21-468): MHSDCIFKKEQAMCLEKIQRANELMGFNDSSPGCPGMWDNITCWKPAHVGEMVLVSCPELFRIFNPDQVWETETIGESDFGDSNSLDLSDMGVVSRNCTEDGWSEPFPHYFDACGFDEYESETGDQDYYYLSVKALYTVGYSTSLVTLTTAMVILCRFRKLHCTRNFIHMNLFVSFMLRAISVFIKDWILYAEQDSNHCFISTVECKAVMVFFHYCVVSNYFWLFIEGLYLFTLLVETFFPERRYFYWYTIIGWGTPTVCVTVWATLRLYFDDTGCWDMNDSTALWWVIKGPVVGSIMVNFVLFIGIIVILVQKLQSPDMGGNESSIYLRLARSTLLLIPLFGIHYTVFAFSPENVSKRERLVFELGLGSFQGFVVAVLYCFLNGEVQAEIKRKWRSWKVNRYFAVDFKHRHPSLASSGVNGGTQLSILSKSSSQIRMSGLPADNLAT

δ2 (h) (DOP) = target: T13, δ2 (h) (DOP) (Homo sapiens, UniProt P41143); assay: Receptor binding screen, [^3H]DADLE; conditions: 10 uM Concentration of Compound I-1-Z; read-out: Mean Value, percent inhibition of control specific binding: δ2 (h) (DOP)
T13 construct: expressed in transfected cells; host or cells: CHO cells
T13 sequence (P41143 whole entry): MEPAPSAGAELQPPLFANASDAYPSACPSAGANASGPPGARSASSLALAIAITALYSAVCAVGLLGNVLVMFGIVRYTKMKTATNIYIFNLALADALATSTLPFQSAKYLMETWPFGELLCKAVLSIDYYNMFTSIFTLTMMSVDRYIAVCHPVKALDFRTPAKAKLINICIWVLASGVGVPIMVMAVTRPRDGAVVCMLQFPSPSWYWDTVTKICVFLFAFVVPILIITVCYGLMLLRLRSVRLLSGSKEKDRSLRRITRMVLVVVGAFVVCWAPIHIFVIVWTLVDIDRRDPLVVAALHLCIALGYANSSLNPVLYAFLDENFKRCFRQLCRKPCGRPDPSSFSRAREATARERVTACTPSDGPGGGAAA
Protocol: as §1

BZD (peripheral) = target: T14, BZD (peripheral) (Rattus norvegicus, UniProt P16257); assay: Receptor binding screen, [^3H]PK 11195; conditions: 10 uM Concentration of Compound I-1-Z; read-out: Mean Value, percent inhibition of control specific binding: BZD (peripheral)
T14 construct: rat heart; from tissue; host or cells: rat heart

Structure (SMILES): COc1ccc(C/C(=C/F)CN)cc1.Cl [Compound I-1-Z, (Z)-3-Fluoro-2-(4-methoxybenzyl)-allylamine hydrochloride]
- inhibition at 10 µM (M2 (h)): 3%
- inhibition at 10 µM (DA transporter (h)): 38%
- inhibition at 10 µM (ORL1 (h) (NOP)): -9%
- Mean Value, percent inhibition of control specific binding: Cl^− channel (Cl^− channel): −6%
- inhibition at 10 µM (D3 (h)): -2%
- inhibition at 10 µM (GAL2 (h)): 12%
- inhibition at 10 µM (5-HT2C (h)): 21%
- Mean Value, percent inhibition of control specific binding: BZD (central) (BZD (central)): 14%
- inhibition at 10 µM (5-HT1A (h)): 34%
- inhibition at 10 µM (5-HT2A (h)): -4%
- inhibition at 10 µM (MC4 (h)): 8%
- inhibition at 10 µM (AT2 (h)): -19%
- LPS-induced lung inflammation ([1]; 1 mg/kg orally before nebulized LPS): effective in reducing LPS-induced lung inflammation
- LPS-induced lung inflammation ([1]; 10 mg/kg orally before nebulized LPS): effective in reducing LPS-induced lung inflammation
- inhibition at 10 µM (NE transporter (h)): 68%
- inhibition at 10 µM (PACAP (PAC1) (h)): 5%
- inhibition at 10 µM (δ2 (h) (DOP)): 0%
- inhibition at 10 µM (BZD (peripheral)): -6%
